Data published in US12295937B2, “Psychoactive medicines and their use for treating psychiatric and neurological conditions and disorders” (Transcend Therapeutics, Inc., priority 2021, dated 2025).
Read-outs that look alike come from different tables or passages of the source.

Assays:
168 GPCRs [1] = target: 168 GPCRs (Homo sapiens, UniProt Q8TDS5); experiment: β-arrestin GPCR screen (PathHunter / GPCRmax), antagonist mode; settings: OXER1; Antagonist; 1 uM
168 GPCRs [2] = target: 168 GPCRs (Homo sapiens, UniProt P08588); experiment: as above; settings: ADRB1, Antagonist mode, 10 uM
168 GPCRs [3] = target: 168 GPCRs (Homo sapiens, UniProt P30556); experiment: as above
Sequence of 168 GPCRs (Homo sapiens, UniProt P30556) (P30556 whole entry): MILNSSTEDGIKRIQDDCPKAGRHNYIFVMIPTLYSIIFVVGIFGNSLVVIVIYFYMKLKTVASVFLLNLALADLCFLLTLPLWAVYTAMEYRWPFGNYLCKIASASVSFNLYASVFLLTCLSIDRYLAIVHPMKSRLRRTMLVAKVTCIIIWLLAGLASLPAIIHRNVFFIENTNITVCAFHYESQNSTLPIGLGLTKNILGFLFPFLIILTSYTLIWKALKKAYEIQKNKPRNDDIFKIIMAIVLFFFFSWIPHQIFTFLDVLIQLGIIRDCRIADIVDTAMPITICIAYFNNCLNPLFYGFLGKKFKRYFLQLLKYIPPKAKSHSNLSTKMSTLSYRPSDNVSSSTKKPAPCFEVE

168 GPCRs [4] = target: 168 GPCRs (Homo sapiens, UniProt P30874); experiment: as above; settings: SSTR2; Antagonist; 1 uM
Sequence of 168 GPCRs (Homo sapiens, UniProt P30874) (P30874 whole entry): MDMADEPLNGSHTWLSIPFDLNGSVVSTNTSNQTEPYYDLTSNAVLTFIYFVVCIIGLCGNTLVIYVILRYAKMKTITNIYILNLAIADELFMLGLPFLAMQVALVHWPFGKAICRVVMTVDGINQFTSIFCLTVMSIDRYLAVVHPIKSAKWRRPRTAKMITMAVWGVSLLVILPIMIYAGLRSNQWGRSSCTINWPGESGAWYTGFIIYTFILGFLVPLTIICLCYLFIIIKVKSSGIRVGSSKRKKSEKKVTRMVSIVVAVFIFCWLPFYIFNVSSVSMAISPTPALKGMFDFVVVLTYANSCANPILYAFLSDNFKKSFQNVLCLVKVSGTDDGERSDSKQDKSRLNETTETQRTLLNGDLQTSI

168 GPCRs [5] = target: 168 GPCRs (Homo sapiens, UniProt Q16581); experiment: as above; settings: C3AR1, Antagonist mode, 10 uM
Sequence of 168 GPCRs (Homo sapiens, UniProt Q16581) (Q16581 whole entry): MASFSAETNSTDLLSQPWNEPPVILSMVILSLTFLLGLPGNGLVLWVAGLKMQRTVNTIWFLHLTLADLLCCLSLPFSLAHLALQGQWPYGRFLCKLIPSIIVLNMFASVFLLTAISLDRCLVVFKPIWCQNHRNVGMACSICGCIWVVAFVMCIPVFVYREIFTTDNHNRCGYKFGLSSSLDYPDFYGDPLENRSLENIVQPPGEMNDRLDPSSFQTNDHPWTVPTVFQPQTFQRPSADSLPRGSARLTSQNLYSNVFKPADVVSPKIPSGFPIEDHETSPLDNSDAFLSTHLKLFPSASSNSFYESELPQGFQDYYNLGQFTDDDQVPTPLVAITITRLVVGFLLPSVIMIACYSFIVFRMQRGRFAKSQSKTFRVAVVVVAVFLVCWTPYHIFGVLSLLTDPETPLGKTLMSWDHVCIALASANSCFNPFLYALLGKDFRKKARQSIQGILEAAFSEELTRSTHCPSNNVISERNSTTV

168 GPCRs [6] = target: 168 GPCRs (Homo sapiens, UniProt P49190); experiment: as above
Sequence of 168 GPCRs (Homo sapiens, UniProt P49190) (P49190 25-550): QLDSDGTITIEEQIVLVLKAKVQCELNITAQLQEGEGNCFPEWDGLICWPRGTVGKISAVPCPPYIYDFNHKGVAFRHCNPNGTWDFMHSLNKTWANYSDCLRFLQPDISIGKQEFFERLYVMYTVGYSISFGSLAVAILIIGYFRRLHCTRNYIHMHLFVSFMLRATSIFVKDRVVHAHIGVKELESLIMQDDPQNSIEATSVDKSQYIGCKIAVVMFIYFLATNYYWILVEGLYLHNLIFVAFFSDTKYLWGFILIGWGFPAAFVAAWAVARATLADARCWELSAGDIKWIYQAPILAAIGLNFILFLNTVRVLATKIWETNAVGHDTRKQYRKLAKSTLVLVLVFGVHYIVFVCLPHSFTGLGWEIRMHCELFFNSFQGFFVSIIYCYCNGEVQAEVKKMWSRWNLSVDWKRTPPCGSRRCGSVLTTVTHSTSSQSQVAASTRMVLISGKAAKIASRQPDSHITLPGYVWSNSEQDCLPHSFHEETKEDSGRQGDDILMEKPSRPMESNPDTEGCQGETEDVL

168 GPCRs [7] = target: 168 GPCRs (Homo sapiens, UniProt P32248); experiment: as above; settings: CCR7, Antagonist mode, 10 uM
Sequence of 168 GPCRs (Homo sapiens, UniProt P32248) (P32248 25-378): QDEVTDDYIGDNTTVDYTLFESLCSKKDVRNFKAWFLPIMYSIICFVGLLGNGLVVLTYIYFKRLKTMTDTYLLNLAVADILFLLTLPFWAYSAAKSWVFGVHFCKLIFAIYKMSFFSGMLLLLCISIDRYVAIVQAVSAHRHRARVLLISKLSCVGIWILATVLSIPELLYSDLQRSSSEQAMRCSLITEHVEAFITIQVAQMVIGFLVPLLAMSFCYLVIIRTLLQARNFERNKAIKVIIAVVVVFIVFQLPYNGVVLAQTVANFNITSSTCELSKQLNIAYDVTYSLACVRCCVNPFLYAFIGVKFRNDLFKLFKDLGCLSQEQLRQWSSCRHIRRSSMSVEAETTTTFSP

168 GPCRs [8] = target: 168 GPCRs (Homo sapiens, UniProt Q16602); experiment: as above; settings: CALCRL-RAMP2, Antagonist mode, 10 uM
Sequence of 168 GPCRs (Homo sapiens, UniProt Q16602) (Q16602 23-461): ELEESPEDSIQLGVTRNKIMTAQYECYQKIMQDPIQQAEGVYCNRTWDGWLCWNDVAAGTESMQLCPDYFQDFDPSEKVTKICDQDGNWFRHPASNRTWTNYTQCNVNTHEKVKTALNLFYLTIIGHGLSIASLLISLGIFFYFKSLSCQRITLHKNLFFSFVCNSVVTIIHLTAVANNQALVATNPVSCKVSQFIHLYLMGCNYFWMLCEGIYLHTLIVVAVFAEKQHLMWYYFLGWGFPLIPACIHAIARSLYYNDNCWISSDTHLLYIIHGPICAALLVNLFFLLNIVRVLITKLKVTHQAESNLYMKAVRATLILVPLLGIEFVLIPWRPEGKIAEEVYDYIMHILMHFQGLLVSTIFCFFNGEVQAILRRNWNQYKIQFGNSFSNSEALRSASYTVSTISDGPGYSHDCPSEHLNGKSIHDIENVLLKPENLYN

168 GPCRs [9] = target: 168 GPCRs (Homo sapiens, UniProt P51685); experiment: as above; settings: CCR8, Antagonist mode, 10 uM
Sequence of 168 GPCRs (Homo sapiens, UniProt P51685) (P51685 whole entry): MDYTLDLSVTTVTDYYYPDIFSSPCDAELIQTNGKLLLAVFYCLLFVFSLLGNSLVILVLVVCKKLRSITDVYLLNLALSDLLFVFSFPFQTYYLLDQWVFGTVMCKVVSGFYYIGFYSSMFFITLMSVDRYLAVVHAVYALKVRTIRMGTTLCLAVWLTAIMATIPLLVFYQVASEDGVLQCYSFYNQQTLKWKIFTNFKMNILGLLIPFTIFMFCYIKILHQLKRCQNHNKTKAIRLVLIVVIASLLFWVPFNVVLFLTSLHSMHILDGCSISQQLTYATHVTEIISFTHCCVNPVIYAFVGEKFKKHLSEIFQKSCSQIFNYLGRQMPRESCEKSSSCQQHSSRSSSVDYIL

168 GPCRs [10] = target: 168 GPCRs (Homo sapiens, UniProt P30411); experiment: as above; settings: BDKRB2, Antagonist mode, 10 uM
Sequence of 168 GPCRs (Homo sapiens, UniProt P30411) (P30411 whole entry): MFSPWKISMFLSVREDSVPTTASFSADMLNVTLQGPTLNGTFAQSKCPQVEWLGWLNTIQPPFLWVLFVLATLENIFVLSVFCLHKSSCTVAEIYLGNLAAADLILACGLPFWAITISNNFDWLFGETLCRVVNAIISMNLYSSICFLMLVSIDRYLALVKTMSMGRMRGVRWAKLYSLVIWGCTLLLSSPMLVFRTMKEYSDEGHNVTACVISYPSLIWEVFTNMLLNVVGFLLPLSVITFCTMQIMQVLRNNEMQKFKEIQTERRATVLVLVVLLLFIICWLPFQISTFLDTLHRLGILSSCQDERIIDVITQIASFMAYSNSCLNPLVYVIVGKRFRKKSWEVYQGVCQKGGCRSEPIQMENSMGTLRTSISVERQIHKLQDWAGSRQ

168 GPCRs [11] = target: 168 GPCRs (Homo sapiens, UniProt O43603); experiment: as above; settings: GALR2, Antagonist mode, 10 uM
Sequence of 168 GPCRs (Homo sapiens, UniProt O43603) (O43603 whole entry): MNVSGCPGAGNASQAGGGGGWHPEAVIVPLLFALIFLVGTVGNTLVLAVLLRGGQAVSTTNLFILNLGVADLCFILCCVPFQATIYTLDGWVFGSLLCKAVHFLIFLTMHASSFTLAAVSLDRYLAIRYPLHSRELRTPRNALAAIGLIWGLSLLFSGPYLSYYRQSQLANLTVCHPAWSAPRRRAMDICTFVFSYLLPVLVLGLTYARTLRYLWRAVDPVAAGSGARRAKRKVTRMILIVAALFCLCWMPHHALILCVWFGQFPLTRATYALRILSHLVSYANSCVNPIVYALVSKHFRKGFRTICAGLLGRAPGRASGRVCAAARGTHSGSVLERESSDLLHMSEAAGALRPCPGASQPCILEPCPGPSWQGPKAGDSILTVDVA

168 GPCRs [12] = target: 168 GPCRs (Homo sapiens, UniProt P43088); experiment: as above; settings: PTGFR, Antagonist mode, 10 uM
Sequence of 168 GPCRs (Homo sapiens, UniProt P43088) (P43088 whole entry): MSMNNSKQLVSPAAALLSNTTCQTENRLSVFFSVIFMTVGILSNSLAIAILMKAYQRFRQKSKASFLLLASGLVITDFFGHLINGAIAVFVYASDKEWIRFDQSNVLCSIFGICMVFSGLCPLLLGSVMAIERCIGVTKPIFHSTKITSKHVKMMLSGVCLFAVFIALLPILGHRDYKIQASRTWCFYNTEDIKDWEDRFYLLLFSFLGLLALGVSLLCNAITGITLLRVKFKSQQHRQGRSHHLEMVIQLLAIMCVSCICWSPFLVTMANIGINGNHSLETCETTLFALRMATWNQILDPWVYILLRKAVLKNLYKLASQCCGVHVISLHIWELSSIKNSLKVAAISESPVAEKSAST

[13] = Rat plasma pharmacokinetics by administration route; format: in vivo; settings: male, SD
Text: Plasma was collected 0.25, 0.5, 1-, 2-, 4-, and 8-hours post-dose.

[14] = target: vesicular monoamine transporter 2 (VMAT2) (Homo sapiens, UniProt Q05940); settings: cited from earlier work
Sequence of vesicular monoamine transporter 2 (VMAT2) (Q05940 whole entry, species assumed): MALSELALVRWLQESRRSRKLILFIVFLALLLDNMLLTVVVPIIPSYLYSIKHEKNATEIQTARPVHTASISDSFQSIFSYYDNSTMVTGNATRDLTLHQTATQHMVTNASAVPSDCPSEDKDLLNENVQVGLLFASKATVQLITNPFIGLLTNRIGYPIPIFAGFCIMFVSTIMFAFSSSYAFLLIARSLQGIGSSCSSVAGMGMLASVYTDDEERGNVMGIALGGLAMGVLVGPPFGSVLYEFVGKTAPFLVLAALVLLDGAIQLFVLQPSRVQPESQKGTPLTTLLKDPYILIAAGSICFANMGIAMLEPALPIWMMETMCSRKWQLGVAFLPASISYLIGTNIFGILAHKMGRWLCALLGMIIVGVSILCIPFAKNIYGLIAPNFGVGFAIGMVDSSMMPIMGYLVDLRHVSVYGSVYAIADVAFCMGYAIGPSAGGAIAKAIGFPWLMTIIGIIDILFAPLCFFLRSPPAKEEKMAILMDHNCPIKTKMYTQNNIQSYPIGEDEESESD

[15] = cited from earlier work
[16] = Cued fear conditioning / extinction training and recall; format: in vivo, mouse
Protocol: Methods: Cued fear conditioning was performed in C57BL/6J mice. On day 1, animals were placed in the chambers and presented with a training session (CS-US pairing). The training consisted of a 2-minute habituation followed by a 30-second, 80 dB tone; during the last 2 seconds of the tone animals received a 1 mA foot shock. This US-CS procedure occurred once for a total of one paired presentation of tone and shock. Freezing behavior (immobility) was recorded in 5-10-see intervals during the session. Percent baseline freezing behavior was determined in the 2-minute habituation period. On day 3, animals were placed in context B, in which tactile and odor cues differed from context A. Following a 2 minute acclimation period animals received 4×30 sec presentations of the CS (tone) in the absence of the US (footshock), with a 45 sec interval between presentations. Freezing was recorded in 5-10-sec intervals to measure baseline freezing response to the altered context, and freezing response to each tone cuc presentation. […] On day 4 (Post-Extinction Testing in Drug-Free State), animals were placed in Context B. Following a 2 min acclimation period, animals received 4×30 sec extinction tone duration presentations of the CS (tone) in the absence of the US (footshock), with a 45 sec interval between presentations. Freezing was recorded in 5-10-sec intervals to measure baseline freezing response to the altered context, and freezing response to each tone cue presentation.

Sequence of 168 GPCRs (Homo sapiens, UniProt Q8TDS5) (Q8TDS5 whole entry): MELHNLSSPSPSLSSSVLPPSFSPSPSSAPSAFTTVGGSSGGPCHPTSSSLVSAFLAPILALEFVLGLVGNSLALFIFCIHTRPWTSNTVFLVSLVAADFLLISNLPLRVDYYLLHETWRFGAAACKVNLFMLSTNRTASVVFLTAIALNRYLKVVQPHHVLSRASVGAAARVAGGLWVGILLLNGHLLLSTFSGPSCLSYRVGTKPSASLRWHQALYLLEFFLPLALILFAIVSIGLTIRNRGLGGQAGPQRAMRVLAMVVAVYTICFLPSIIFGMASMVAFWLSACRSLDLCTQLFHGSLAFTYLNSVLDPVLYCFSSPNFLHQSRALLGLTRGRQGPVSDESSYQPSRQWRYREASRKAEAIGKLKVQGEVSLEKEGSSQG

## CNC(C)C(=O)c1ccc2c(c1)OCO2 (stereo not drawn) [Methylone, 3,4-methylenedioxy-N-methylcathinone]
168 GPCRs [1]
  % Activity: 2.9%
168 GPCRs [2]
  % Activity: −1.2%
168 GPCRs [3]; AGTR1, Antagonist mode, 10 uM
  % Activity: −1.4%
168 GPCRs [3]; AGTR1, Antagonist, 1 uM
  % Activity: 3.3%
168 GPCRs [4]
  % Activity: −0.4%
168 GPCRs [5]
  % Activity: 0.3%
168 GPCRs [6]; PTHR2, Antagonist mode, 10 uM
  % Activity: −0.2%
168 GPCRs [6]; PTHR2, Antagonist, 1 uM
  % Activity: −1%
168 GPCRs [7]
  % Activity: −3.4%
168 GPCRs [8]
  % Activity: 7%
168 GPCRs [9]
  % Activity: −0.3%
168 GPCRs [10]
  % Activity: −2.6%
168 GPCRs [11]
  % Activity: 1.5%
168 GPCRs [12]
  % Activity: 0%
[13]; IM 15 mg/kg
  AUC(0-inf): 4610 ng·h/mL
  Cmax: 5400 ng/mL
  half-life: 44.4 min
[13]; IM 20 mg/kg
  AUC(0-inf): 6370 ng·h/mL
  Cmax: 5920 ng/mL
  half-life: 42 min
[13]; IP 15 mg/kg
  AUC(0-inf): 2590 ng·h/mL
  Cmax: 1250 ng/mL
  half-life: 56.1 min
[13]; PO 15 mg/kg
  AUC(0-inf): 2290 ng·h/mL
  Cmax: 552 ng/mL
  half-life: 136 min
[13]; SC 15 mg/kg
  AUC(0-inf): 4330 ng·h/mL
  Cmax: 3650 ng/mL
  half-life: 49.2 min
[13]; SC 20 mg/kg
  AUC(0-inf): 5960 ng·h/mL
  Cmax: 4320 ng/mL
  half-life: 52.2 min
[14]
  Affinity for VMAT2, times lower than that of MDMA: about 13 ×
[15]; 50 mg oral, N = 3
  Cmax (geometric mean): 151.2 µg/L
[15]; 50 mg oral
  AUC10hr (geometric mean): 725 µg·h/L
  AUC24hr (geometric mean): 988 µg·h/L
  AUCinf (geometric mean): 1062 µg·h/L
  Half-life (geometric mean): 6.2 h
  Tmax (median): 1.5 h
[15]; 100 mg oral, N = 6
  Cmax (geometric mean): 283.9 µg/L
[15]; 100 mg oral
  AUC10hr (geometric mean): 1554 µg·h/L
  AUC24hr (geometric mean): 2232 µg·h/L
  AUCinf (geometric mean): 2410 µg·h/L
  Half-life (geometric mean): 6.0 h
  Tmax (median): 2.5 h
[15]; 150 mg oral, N = 5
  Cmax (geometric mean): 340.2 µg/L
[15]; 150 mg oral
  AUC10hr (geometric mean): 2153 µg·h/L
  AUC24hr (geometric mean): 3165 µg·h/L
  AUCinf (geometric mean): 3509 µg·h/L
  Half-life (geometric mean): 6.7 h
[15]; 200 mg oral, N = 7
  Cmax (geometric mean): 594.2 µg/L
[15]; 200 mg oral
  AUC10hr (geometric mean): 3261 µg·h/L
  AUC24hr (geometric mean): 4676 µg·h/L
  AUCinf (geometric mean): 5116 µg·h/L
  Half-life (geometric mean): 6.5 h
[15]; oral 50 mg to 200 mg
  Time to reach maximum concentrations (Tmax): 1 to 2 h
  half-life: 6 to 7 h
[16]; 30 mg/kg IP
  Persistence of effect post dose: at least 11 days
[16]; 30 mg/kg IP, 30 min before extinction training on Day 3
  Effect on fear extinction training and testing: rapid, robust and long-lasting beneficial effect on fear extinction training and testing
[16]; 10, 20 or 30 mg/kg IP
  Fear extinction training on day 3: All doses significantly improved fear extinction training on day 3
